Measurements taken from patent US20260232648A1, “GROWTH HORMONE SECRETION PROMOTER” (SCOHIA PHARMA, INC., priority 2023, published 2026).

Columns and labels:
human SSTR 5 = target: T1, human SSTR 5 (Homo sapiens, UniProt P35346); assay: Radiolabeled ligand binding assay, human SSTR subtype selectivity; details: SSTR5 versus SSTR1-4, 1 μM
T1 construct: expressed in transfected cells; host or cells: CHO-K1 cells (membrane fraction)
Experimental: The selectivity of test compounds for human SSTR subtypes was investigated by radiolabeled ligand binding assay. The membrane fraction of CHO-K1 cells expressing human SSTR1-5 was suspended in am assay buffer (25 mM HEPES (pH 7.4), 5 mM MgCl2, 1 mM CaCl2), 10 μg/mL saponin, 0.5% fatty-acid free BSA) and incubated for 1 hr in the presence of 1 μM test compound 1 and [^125I]Tyr^11-somatostatin 14 (Perkin Elmer). Thereafter, the solution containing the membrane fraction was transferred onto a filter plate, and after washing the filter six times with a wash buffer (25 mM HEPES, 5 mM MgCl2, 1 mM CaCl2), 50 μL of Microscint 20 (Packard) was added, and the radioactivity was measured using a TopCount (Perkin Elmer). The results of competitive activity of the test compound against the binding of the human SSTR subtypes with the labeled ligands are shown in Table 2.

growth hormone secretion = assay: Growth hormone secretion enhancing action by single dose administration in human (Phase 1 study); assay type: in vivo
Experimental: (§1) The examples in this section show the measurement results of blood anterior pituitary hormone concentrations using blood samples from a dose escalation study targeting healthy Japanese adult men, from A Randomized, Double-Blind, Placebo-Controlled, Phase 1 Study (jRCT2051210027) targeting healthy adults, which was conducted to examine the safety and tolerability, pharmacokinetics, and pharmacodynamic action of a single administration of test compound 1.
In a randomized, double-blind, placebo-controlled, parallel-group comparison, dose-escalation study consisting of 7 cohorts, a single dose of test compound 1 (1, 3, 10, 20, 40, 80 and 160 mg) or placebo was orally administered under fasting conditions. Eight test subjects (6 in the active drug group and 2 in the placebo group) participated in each cohort. The concomitant use of all medications was prohibited from 28 days before hospitalization until discharge. […]
The concentration of anterior pituitary hormone was measured using blood from the placebo administration group of all cohorts and the test subjects who received administration of 1 mg or 10 mg of test compound 1, at 0.5 hr before administration and 2, 4, 6, 8, and 10 hr after administration. […]

[1] = tested on: secretion of other anterior pituitary hormones; assay: Blood concentrations of other anterior pituitary hormones after single dose administration in human (Phase 1 study); assay type: in vivo; details: healthy Japanese adult men; single oral dose 1 mg or 10 mg
Experimental: as §1
In a randomized, double-blind, placebo-controlled, parallel-group comparison, dose-escalation study consisting of 7 cohorts, a single dose of test compound 1 (1, 3, 10, 20, 40, 80 and 160 mg) or placebo was orally administered under fasting conditions. Eight test subjects (6 in the active drug group and 2 in the placebo group) participated in each cohort. The concomitant use of all medications was prohibited from 28 days before hospitalization until discharge.
The test subjects were inspected and examined within 28-2 days and 1 day before administration of test compound 1, and eligibility was confirmed based on the above-mentioned inclusion criteria and exclusion criteria. […] They were fasted for 10 hr before administration and 4 hr after administration until lunch, and took lunch at 13:[…]. The blood was collected 0.5 hr before and 1, 2, 4, 6, 8, and 10 hr after administration of test compound 1.
The concentration of anterior pituitary hormone was measured using blood from the placebo administration group of all cohorts and the test subjects who received administration of 1 mg or 10 mg of test compound 1, at 0.5 hr before administration and 2, 4, 6, 8, and 10 hr after administration. The concentrations of growth hormone, follicle-stimulating hormone, luteinizing hormone, thyroid-stimulating hormone, adrenocorticotropic hormone, and prolactin in blood were measured using the Human Growth Hormone Quantikine ELISA Kit (manufactured by R&D Systems), Follicle-Stimulating Hormone (Human) ELISA Kit (manufactured by Cayman Chemical), Luteinizing Hormome (Human) ELISA Kit (manufactured by Cayman Chemical), U-TSH ELISA (manufactured by BIOCHECK), ACTH ELISA Kit (manufactured by MB Biosciences GmbH), and Human Prolactin Quantikine ELISA Kit (manufactured by R&D Systems) according to the protocol described in the package insert of each kit.
The time course changes in the blood anterior pituitary hormone concentrations after oral administration of placebo (n=14) or test compound 1 at doses of 1 mg and 10 mg (n=6 for each) are shown in FIG. 1-6.

T1 sequence (P35346 whole entry): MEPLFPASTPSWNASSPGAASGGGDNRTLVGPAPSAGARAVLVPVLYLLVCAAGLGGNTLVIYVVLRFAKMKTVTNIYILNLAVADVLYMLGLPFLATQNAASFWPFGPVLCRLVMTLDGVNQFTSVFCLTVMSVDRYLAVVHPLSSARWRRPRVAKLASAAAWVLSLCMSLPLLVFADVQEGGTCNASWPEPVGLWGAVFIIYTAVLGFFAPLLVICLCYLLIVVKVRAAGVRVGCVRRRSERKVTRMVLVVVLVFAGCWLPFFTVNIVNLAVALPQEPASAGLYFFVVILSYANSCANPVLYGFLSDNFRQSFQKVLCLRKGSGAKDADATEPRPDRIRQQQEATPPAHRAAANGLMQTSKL

SMILES: CCCc1nc2c(cc1C(=O)O)C(=O)N(C1CCN(Cc3cc(C4CC4)c(-c4ccc(F)cc4)cc3OCC)CC1)CC2 [test compound 1, 6-(1-((2-cyclopropyl-5-ethoxy-4′-fluorobiphenyl-4-yl)methyl)piperidin-4-yl)-5-oxo-2-propyl-5,6,7,8-tetrahydro-1,6-naphthyridine-3-carboxylic acid]
- selectivity of binding among the human SSTR subtypes (human SSTR 5): selectively binds to SSTR5
- growth hormone secretion (blood growth hormone concentration) (growth hormone secretion; healthy Japanese adult men, single oral dose 1 mg or 10 mg, fasting, 2-10 hr after administration): clearly enhance growth hormone secretion
- increase in blood growth hormone concentration compared with growth hormone replacement therapy (growth hormone secretion; human, compared with literature values for patients with pediatric growth hormone deficiency): corresponds to the blood growth hormone concentration obtained by growth hormone replacement therapy
- secretion of adrenocorticotropic hormone (blood concentration) [1]: did not substantially affect
- secretion of follicle-stimulating hormone (blood concentration) [1]: did not substantially affect
- secretion of luteinizing hormone (blood concentration) [1]: did not substantially affect
- secretion of prolactin (blood concentration) [1]: did not substantially affect
- secretion of thyroid-stimulating hormone (blood concentration) [1]: did not substantially affect
